Assay: Photochromic properties of the compound in the (co)polymer matrix under xenon lamp exposure
Type: physicochemical
Conditions: for color exhibited: color of the photochromic compound; for λmax (nm): same conditions as compound (I): 0.05% by weight in matrix; for T0 (%) / DO induced: same conditions as compound (I); for DO induced: xenon lamp (40.000 lux)
Experimental: The matrix is based on a short-chain (meth)acrylate difunctional monomer and a long-chain alkenic difunctional monomer. Used at 0.05% by weight within the matrix (conditioned under 2 mm thickness), the compound has led to the results shown in the Table below.
Compounds C1, C2, C3, other naphthopyrans according to the application WO-A-94 22850, are identified by their developed formula in the Example part of the text. All compounds (II), C1, C2, C3 were tested under the same conditions as those indicated above with reference to compound (I).
The half-time of fading : t1/2, expressed in seconds is specified below for each one of the compounds. This parameter characterizes the kinetics of the return to the initial state (after darkening)(see its exact definition given earlier in the present text with reference to the Table grouping the properties of compound (I)).

[1] = 0.05% by weight within the matrix, 2 mm thickness
[2] = optical density after minus before exposure under a xenon lamp (40.000 lux), 0.05% by weight in matrix, 2 mm
[3] = transmission before exposure, 0.05% by weight in matrix, 2 mm

SMILES | color exhibited | λmax (nm) (2 mm) | T0 (%) (transmission before exposure) | DO induced | λmax 1 [1] | λmax 2 [1] | DOinduced** at 489 nm [2] | DOinduced** at 588 nm [2] | T0* at 489 nm [3] | T0* at 588 nm [3]
COc1ccc(C2(c3ccccc3)C=Cc3c(cc(N4CCOCC4)c4ccccc34)O2)cc1 (centres unmarked) [Compound (II), 3-(p-methoxyphenyl)-3-phenyl-6-morpholino-3H-naphtho-[2,1-b]pyran] | yellow | 439 nm | 79% | 1.65 |  |  |  |  |  | 
COc1ccc(C2(c3ccc(N(C)C)cc3)C=Cc3c(C)cc4c(OC)cc(OC)cc4c3O2)cc1 (centres unmarked) [Compound (I), 2-(p-dimethylaminophenyl)-2-(p-methoxyphenyl)-5-methyl-7,9-dimethoxy-[2H]-naphtho[1,2-b]pyran] | violet |  |  |  | 489 nm | 588 nm | 0.58 | 0.94 | 85% | 86%

Next, values leading:

color exhibited | λmax (nm) (2 mm) | T0 (%) (transmission before exposure) | DO induced | λmax 1 [1] | λmax 2 [1] | DOinduced** at 489 nm [2] | DOinduced** at 588 nm [2] | T0* at 489 nm [3] | T0* at 588 nm [3] | SMILES
 | 456 nm | 74% | 1.37 |  |  |  |  |  |  | COc1ccc(C2(c3ccc(OC)cc3)C=Cc3c(cc(N4CCOCC4)c4ccccc34)O2)cc1 [Compound C1, reference compound]
 | 430 nm | 79% | 1.77 |  |  |  |  |  |  | COc1ccc(C2(c3ccccc3)C=Cc3c(cc(N4CCCCC4)c4ccccc34)O2)cc1 (centres unmarked) [Compound C3, reference compound]
 | 430 nm | 68% | 1.60 |  |  |  |  |  |  | COc1ccc(C2(c3ccc(C(F)(F)F)cc3)C=Cc3c(cc(N4CCOCC4)c4ccccc34)O2)cc1 (centres unmarked) [Compound C2, reference compound]

— EP0980535B1, “PHOTOCHROMIC COMPOSITIONS, PHOTOCHROMIC COMPOUNDS (CO)POLYMER MATRICES” (Corning S.A., priority 1997, dated 1998)
